Experimental data: patent US10501453B2, “Benzothiazole or benzoxazole compounds as SUMO activators” (Icahn School of Medicine at Mount Sinai, priority 2012, dated 2019)

Key:
sham-operated animals = assay: Hemodynamics in sham-operated mice; format: in vivo, mouse
Protocol: Hemodynamics were measured to evaluate the acute effect of Example 1 infusion on the cardiac function of the mouse model of HF. In the first set of experiments, mice were exposed to pressure overload by thoracic aortic constriction (TAC) or sham operation and received either EXAMPLE 1 or vehicle. At two months post-TAC animals developed HF. […] In addition, the positive chronotropic effect of dobutamine was no longer observed in TAC mice (FIG. 9). Following cannulation of the carotid artery and external jugular vein, infusion of EXAMPLE 1 or vehicle was performed as described in Method section. Pressure and conductance catheters were introduced in the LV through the carotid artery. Pressure and volume measurements were made simultaneously and pressure volume curves were constructed as the vehicle or EXAMPLE 1 were infused.
Hemodynamic data were obtained in 1 mg of EXAMPLE 1-treated failing hearts at 30 min and 60 min after compound treatment. […] The improvement occurred within 30 minutes after treatment and maintained for 60 minutes after treatment. […] The effects of EXAMPLE 1 on various hemodynamic parameters are shown in FIG. 9b and Table S1. dP/dt max increased with increasing concentration of EXAMPLE 1 while Tau a parameter of relaxation decreased an indication of enhanced relaxation.

[1] = Pharmacokinetic analysis in mice; conditions: mouse, in vivo, ip; murine model, 10 mg/kg intraperitoneal dose
Protocol: FIG. 12 depicts the pharmacokinetic analysis of the compound of Example 1 in mice at a 10 mg/kg intraperitoneal dose.

[2] = test system: Yorkshire pigs with severe heart failure; assay: Contractility in Yorkshire pigs with severe heart failure secondary to myocardial infarction; format: in vivo, pig; conditions: 5 mg/kg, intracoronary
Protocol: Example 1 was dosed in Yorkshire pigs at 5 mg/kg with severe heart failure secondary to myocardial infarction.
The experimental protocols complied with the National Institutes of Health Guide for the Care and Use of Laboratory Animals and standards of United States regulatory agencies. They were approved by the Institutional Animal Care and Use Committee of the Mount Sinai School of Medicine. Yorkshire pigs were pre-medicated using intramuscular Telazol™ (8.0 mg/kg; tiletamine hydrochloride and zolazepam hydrochloride; Fort Dodge Animal Health, Fort Dodge, Iowa). After the placement of an intravenous line, animals were intubated and ventilated with 100% oxygen. General anesthesia was maintained with intravenous propofol (8-10 mg/kg/hr) throughout the procedure.
The animals underwent a 2-hour balloon occlusion of the proximal LAD (left anterior descending coronary artery) followed by reperfusion. Ten minutes before MI creation a continuous infusion of 20 mEq potassium acetate, 75 mg amiodarone, and 2 mg atropine was initiated to reduce ischemia related arrhythmia. […] Arterial pressure, blood oxygen saturation (SpO2), and electrocardiogram were monitored closely throughout the procedure. […]
Cardiac performance was evaluated at one month after MI. […] Cardiac function was monitored and recorded for 3 hours after injection.

[3] = test system: adult rat ventricular myocytes (ARVMs); assay: Cell shortening/re-lengthening and calcium transient of ARVMs (IonOptix); format: cell-based

## COc1ccc(-c2nnc(Nc3nc4c(OC)cccc4s3)o2)cc1 [Example 1, N-(4-methoxybenzo[d]thiazol-2-yl)-5-(4-methoxyphenyl)-1,3,4-oxadiazol-2-amine]
sham-operated animals
  hemodynamic parameters in sham-operated groups: No statistically significant changes
[1]
  Cmax: 2240 nM
  half-life: 1.09 h
[2]
  increase in contractility (as measured by dP/dt): 25-30%
[3]; 0.1 μM
  Tau value (dose response): 1.3 ± 0.0 ms
[3]; 1 μM
  Tau value (dose response): 1300 ± 100 ms
[3]; concentration dependent manner, versus DMSO
  cell contractility (peak shortening), dose response: significantly increased cell contractility
